In brackets after ≈: the same amount, converted by molar mass.
What was measured:
[1] = Dynamic vapor sorption (DVS) hygroscopicity; assay type: physicochemical; details: for Hygroscopicity: DVS, 0 to 90% RH
Method: Hygroscopicity was determined on a Surface Measurement Systems DVS. A sample size of 5-20 mg was loaded into the DVS instrument sample pan and the sample was analyzed on a DVS automated sorption analyzer at room temperature. The relative humidity was increased from 0% to 90% RH at 10% RH step, then decreased in a similar manner to accomplish a full adsorption/desorption cycle. FIGS. 29-33 depict the DVS isotherm plots of Forms A, C, D, E, and I.

[2] = Form conversion (form transfer) experiments: slurry, compression, heating, humidity cycle; assay type: physicochemical
Method: Form conversion experiments were performed to determine interconversion among solid forms.
The stability of Form A was further characterized by compression test and form transfer experiments (Table 6). Upon application of 2000-psi pressure for about 1 minute, the material was still Form A, with broader diffraction peaks (FIG. 42(c)).

[3] = DSC and TGA thermal analysis; details: for % loss (TGA): screen sample; for endotherm observed (DSC): complex of Compound 1 with co-former, sample from primary salt/co-crystal screen
[4] = Approximate solubility of Compound 1 Form A at room temperature; assay type: physicochemical; details: for solubility at 1 day: thermodynamic from solid
From the text: Solubility of Form A was approximated in the following solvents: acetonitrile (ACN), ACN/water (1:1), n-butanol (n-BuOH), absolute ethanol (EtOH), ethanol/water (1:1), methanol (MeOH), 2-propanol (IPA), ethyl acetate (EtOAc), methyl acetate (MeOAc), dichloromethane (DCM), methyl ethyl ketone (MEK), methyl t-butyl ether (MTBE), heptane, toluene, methyl acetate (MeOAc), isopropyl acetate (IPAc), methyl isobutyl ketone (MIBK), 2-methyltetrahydrofuran (2-MeTHF), 1,4-dioxane, tetrahydrofuran (THF), THF/water (1:1), water, dimethyl sufoxide (DMSO), dimethylacetamide (DMA, DMAc), and N-methylpyrrolidone (NMP). A weighed sample of Form A (about 50 mg) was treated with a known volume of a test solvent. The resulting mixture was agitated for 1 day at room temperature. If all of the solids appeared to be dissolved by visual inspection, the estimated solubility was calculated based on the total volume of solvent used to give a complete solution. If solids were present, a known volume of filtrate was evaporated to dryness and the weight of the residue was measured to estimate the solubility.

[5] = between 0 and 90% RH, room temperature
[6] = 0-90-0% RH cycle in DVS, 25° C.
[7] = compression, 2000 psi, RT, 1 min
[8] = heating in KF oven, 190° C., ~10 min

## CCOCc1cnc(Cl)nc1Oc1ccc2c(ccc3sc4c(c32)NC[C@@H](C)NC4=O)n1 [Form D, (R)-3-((2-chloro-5-(ethoxymethyl)pyrimidin-4-yl)oxy)-10-methyl-9,10,11,12-tetrahydro-8H-[1,4]diazepino[5′,6′:4,5]thieno[3,2-f]quinolin-8-one]
[1]
  Hygroscopicity: slightly hygroscopic
[1]; [5]
  DVS water uptake: about 2.6 wt %
[1]; between 0 and 90% RH, room temperature, listed as D
  DVS water uptake: DVS: ~2.6 wt % water
[2]; [6]
  Resulting Form(s): No form change
[2]; [7]
  Resulting Form(s): mainly Form D
[2]; compression, 2000 psi, RT, 1 min, listed as D
  Resulting Form(s): D (+ A?)
[2]; [8]
  Resulting Form(s): confirmed to be Form A

## CCOCc1cnc(Cl)nc1Oc1ccc2c(ccc3sc4c(c32)NC[C@@H](C)NC4=O)n1 [Form E, (R)-3-((2-chloro-5-(ethoxymethyl)pyrimidin-4-yl)oxy)-10-methyl-9,10,11,12-tetrahydro-8H-[1,4]diazepino[5′,6′:4,5]thieno[3,2-f]quinolin-8-one]
[1]; between 0 and 60% RH
  DVS water uptake: about 2.2 wt %
[1]; [5]
  DVS water uptake: 7.5 wt %
[1]; between 0 and 90% RH, room temperature, listed as E
  DVS water uptake: DVS: ~7.5 wt % water
[2]; [6]
  Resulting Form(s): No form change
[2]; THF/water (5/95), long periods of equilibration
  Resulting form: converted to Form A
[2]; [7]
  Resulting Form(s): still Form E
[2]; [8]
  Resulting Form(s): confirmed to be Form E
[2]; slurry in acetone, temperature and time not given
  Resulting form: converts to Form A

## NCCCC[C@H](N)C(=O)O [L-lysine]
[3]; from 150 to 250° C.
  % loss (TGA): 12.61% loss from 150 to 250 °C
[3]; up to 150° C.
  % loss (TGA): 7.32% loss up to 150 °C

## Cc1ccc(S(=O)(=O)O)cc1 [p-toluenesulfonic acid]
[3]; up to 130° C.
  % loss (TGA): 3.50% loss up to 130 °C

## CCOCc1cnc(Cl)nc1Oc1ccc2c(ccc3sc4c(c32)NC[C@@H](C)NC4=O)n1 [Form A, (R)-3-((2-chloro-5-(ethoxymethyl)pyrimidin-4-yl)oxy)-10-methyl-9,10,11,12-tetrahydro-8H-[1,4]diazepino[5′,6′:4,5]thieno[3,2-f]quinolin-8-one]
[1]
  Hygroscopicity: slightly hygroscopic
[1]; [5]
  DVS water uptake: about 2.5 wt %
[1]; between 0 and 90% RH, room temperature, listed as A
  DVS water uptake: DVS: ~2.5 wt % water
[2]; [6]
  Resulting Form(s): No form change
[2]; [7]
  Resulting Form(s): still Form A
[2]; [8]
  Resulting Form(s): confirmed to be Form A
[4]; 2-MeTHF (2-methyltetrahydrofuran), organic solvent or mixture, 2-MeTHF, 1 day
  solubility at 1 day: < 2000 µg/mL
[4]; ACN (acetonitrile), organic solvent or mixture, ACN, 1 day
  solubility at 1 day: < 2000 µg/mL
[4]; ACN/water (1:1), aqueous with cosolvent or surfactant or cyclodextrin, ACN/water (1:1), 1 day
  solubility at 1 day: < 1000 µg/mL
[4]; DCM (dichloromethane), organic solvent or mixture, DCM, 1 day
  solubility at 1 day: 8000 to 16000 µg/mL (≈ 17 to 34 mM)
[4]; DCM, 1 day
  Approximate Solubility: <9000 µg/mL
[4]; DMA (dimethylacetamide), organic solvent or mixture, DMA, 1 day
  solubility at 1 day: > 50000 µg/mL
[4]; DMA, 1 day
  Approximate Solubility: >50000 µg/mL
[4]; DMSO, 1 day
  Approximate Solubility: >50000 µg/mL
[4]; DMSO, organic solvent or mixture, 1 day
  solubility at 1 day: > 50000 µg/mL
[4]; EtOAc (ethyl acetate), organic solvent or mixture, EtOAc, 1 day
  solubility at 1 day: < 1000 µg/mL
[4]; EtOH (absolute ethanol), organic solvent or mixture, EtOH, 1 day
  solubility at 1 day: < 2000 µg/mL
[4]; EtOH/water (1:1), aqueous with cosolvent or surfactant or cyclodextrin, EtOH/water (1:1), 1 day
  solubility at 1 day: < 1000 µg/mL
[4]; IPA (2-propanol), organic solvent or mixture, IPA, 1 day
  solubility at 1 day: < 1000 µg/mL
[4]; IPAc (isopropyl acetate), organic solvent or mixture, IPAc, 1 day
  solubility at 1 day: < 1000 µg/mL
[4]; MEK (methyl ethyl ketone), organic solvent or mixture, MEK, 1 day
  solubility at 1 day: > 2000 µg/mL
[4]; MEK, 1 day
  Approximate Solubility: <3000 µg/mL
[4]; MIBK (methyl isobutyl ketone), organic solvent or mixture, MIBK, 1 day
  solubility at 1 day: < 1000 µg/mL
[4]; MTBE (methyl t-butyl ether), organic solvent or mixture, MTBE, 1 day
  solubility at 1 day: < 1000 µg/mL
[4]; MeOAc (methyl acetate), organic solvent or mixture, MeOAc, 1 day
  solubility at 1 day: < 2000 µg/mL
[4]; MeOH (methanol), organic solvent or mixture, MeOH, 1 day
  solubility at 1 day: < 3000 µg/mL
[4]; NMP (N-methylpyrrolidone), organic solvent or mixture, NMP, 1 day
  solubility at 1 day: > 50000 µg/mL
[4]; NMP, 1 day
  Approximate Solubility: >50000 µg/mL
[4]; THF (tetrahydrofuran), organic solvent or mixture, THF, 1 day
  solubility at 1 day: 8000 to 16000 µg/mL (≈ 17 to 34 mM)
[4]; THF, 1 day
  Approximate Solubility: <10000 µg/mL
[4]; THF/water (1:1), 1 day
  Approximate Solubility: <16000 µg/mL
[4]; THF/water (1:1), aqueous with cosolvent or surfactant or cyclodextrin, THF/water (1:1), 1 day
  solubility at 1 day: 8000 to 16000 µg/mL (≈ 17 to 34 mM)
[4]; acetone, 1 day
  Approximate Solubility: <3000 µg/mL
[4]; acetone, organic solvent or mixture, 1 day
  solubility at 1 day: > 2000 µg/mL
[4]; heptane, organic solvent or mixture, 1 day
  solubility at 1 day: < 1000 µg/mL
[4]; n-BuOH (n-butanol), organic solvent or mixture, n-BuOH, 1 day
  solubility at 1 day: < 1000 µg/mL
[4]; organic solvent or mixture, all other solvents tested (not DMSO, DMA, NMP, THF/water, THF, DCM, acetone, 1,4-dioxane, MEK)
  solubility at 1 day: < 3000 µg/mL
[4]; toluene, organic solvent or mixture, 1 day
  solubility at 1 day: < 1000 µg/mL
[4]; water, 1 day
  solubility at 1 day: < 1000 µg/mL

## N#CS [thiocyanic acid]
[3]; from 100 to 200° C.
  % loss (TGA): 6.54% loss from 100 to 200 °C
[3]; up to 100° C.
  % loss (TGA): 3.04% loss up to 100 °C

## CS(=O)(=O)O [methanesulfonic acid]
[3]
  endotherm observed (DSC): endotherm observed at 157.01 °C
[3]; up to 160° C.
  % loss (TGA): 8.28% loss up to 160 °C

## O=C(O)/C=C\C(=O)O [maleic acid]
[3]
  endotherm observed (DSC): endotherm observed at 153.89 °C
[3]; up to […] C.
  % loss (TGA): 9.87% loss up to 155 °C

## CCOCc1cnc(Cl)nc1Oc1ccc2c(ccc3sc4c(c32)NC[C@@H](C)NC4=O)n1 [Form B, (R)-3-((2-chloro-5-(ethoxymethyl)pyrimidin-4-yl)oxy)-10-methyl-9,10,11,12-tetrahydro-8H-[1,4]diazepino[5′,6′:4,5]thieno[3,2-f]quinolin-8-one]
[2]; [7]
  Resulting Form(s): mainly Form B, with a small amount of Form A
[2]; compression, 2000 psi, RT, 1 min, listed as B
  Resulting Form(s): B + A
[2]; [8]
  Resulting Form(s): confirmed to be Form A
[2]; storage in vials
  Form change upon storage: convert to Form A

## CCOCc1cnc(Cl)nc1Oc1ccc2c(ccc3sc4c(c32)NC[C@@H](C)NC4=O)n1 [Form C, (R)-3-((2-chloro-5-(ethoxymethyl)pyrimidin-4-yl)oxy)-10-methyl-9,10,11,12-tetrahydro-8H-[1,4]diazepino[5′,6′:4,5]thieno[3,2-f]quinolin-8-one]
[1]
  Hygroscopicity: hygroscopic
[1]; [5]
  DVS water uptake: approximately 4.1 wt %
[1]; between 0 and 90% RH, room temperature, listed as C
  DVS water uptake: DVS: ~4.1 wt % water
[2]; [6]
  Resulting Form(s): E + C + peaks
[2]; [7]
  Resulting Form(s): partially convert to Form E
[2]; compression, 2000 psi, RT, 1 min, listed as C
  Resulting Form(s): E + C + peaks
[2]; [8]
  Resulting Form(s): a mixture of Form A and Form C
[2]; heating in KF oven, 190° C., ~10 min, listed as C
  Resulting Form(s): A + C (shifted)
[2]; slurry in THF/water (5:95), time not given
  Resulting form: convert to Form E

## CCOCc1cnc(Cl)nc1Oc1ccc2c(ccc3sc4c(c32)NC[C@@H](C)NC4=O)n1 [Form I, (R)-3-((2-chloro-5-(ethoxymethyl)pyrimidin-4-yl)oxy)-10-methyl-9,10,11,12-tetrahydro-8H-[1,4]diazepino[5′,6′:4,5]thieno[3,2-f]quinolin-8-one]
[1]; [5]
  DVS water uptake: Approximately 1.5 wt %
[2]; [6]
  Resulting Form(s): change to Form A

## O=C1O[C@H]([C@@H](O)CO)C(O)=C1O [L-ascorbic acid]
[3]
  endotherm observed (DSC): endotherm observed at 88.26 °C
[3]; up to 100° C.
  % loss (TGA): 2.55% loss up to 100 °C

## O=C(O)c1cc(O)ccc1O [gentisic acid]
[3]
  endotherm observed (DSC): endotherm observed at 115.17 °C
[3]; up to 120° C.
  % loss (TGA): 1.69% loss up to 120 °C

## O=C1NS(=O)(=O)c2ccccc21 [saccharin]
[3]; up to […] C.
  % loss (TGA): 3.70% loss up to 165 °C

## O=C(O)c1ccc2ccccc2c1O [1-hydroxy-2-naphthoic acid (Form 2)]
[3]
  endotherm observed (DSC): endotherm observed at 169.60 °C
[3]; up to 150° C.
  % loss (TGA): 1.86% loss up to 150 °C

## CCOCc1cnc(Cl)nc1Oc1ccc2c(ccc3sc4c(c32)NC[C@@H](C)NC4=O)n1 [Form H, (R)-3-((2-chloro-5-(ethoxymethyl)pyrimidin-4-yl)oxy)-10-methyl-9,10,11,12-tetrahydro-8H-[1,4]diazepino[5′,6′:4,5]thieno[3,2-f]quinolin-8-one]
[2]; slurry in THF/water (5:95), RT, 8 days
  Resulting Form(s): A + I
[2]; slurry in water, RT, 4 days
  Resulting Form(s): generated Form I

## O=C(O)c1ccc2ccccc2c1O [1-hydroxy-2-naphthoic acid (Form 1)]
[3]; up to 150° C.
  % loss (TGA): 10.82% loss up to 150 °C

Reference: patent publication US10882867B2, “Forms and compositions of a MK2 inhibitor” (Celgene CAR LLC, priority 2017, dated 2021)
